From patent US20120294869A1, “Methods for Treating Fatty Liver Disease” (Nevada Cancer Institute, priority 2011, published 2012)
Where two headings read alike, the source gives them in different places. Blank lines part the entries; values can stand above or below the compound they belong to.

Experiments:
[1] = Fate of an i.p. tracer dose of [3H]Urd in mouse plasma; format: in vivo; details: for half-life: plasma, ip
Description: The UPP-1-KO mouse was created by replacing a 2.5 kb fragment of the UPP-1 gene (including exons 4 and 5) with a 1.6 kb neomycin resistance expression cassette. See, e.g., Cao, D. et al. (2002) Cancer Res. 62: 2313-2317 and Cao, D. et al. (2005) J. Biol. Chem. 280: 21169-21175. […] The absence of UPP-1 phosphorolytic (UPase) activity was confirmed by determining the fate of a tracer dose (25 μCi/mouse) of [^3H]Urd injected intraperitoneally (i.p.) in mice. A very rapid disappearance of [^3H]Urd from the plasma of wild-type (WT) mice was observed, with a t1/2, of approximately […] due to active phosphorolysis.
Enzymatic activity in liver was 10.7±0.3 nmol/hr/mg for the WT animals compared to 252±68 nmol/hr/mg for the transgenic. In WT mice, a tracer dose of [^3H]Urd (25 μCi, i.p.) was rapidly degraded with a t1/2, of approximately 4 minutes. […] Table 1 summarizes the concentrations of URD in WT C57BL/6 mice, the UPP-1-KO and the UPP-1-TG models.

UPP-2 = details: mouse liver tissue; cited from earlier work
UPP-1-TG mice [2] = test: CARS imaging of liver lipid accumulation after dietary Urd supplementation; format: in vivo, mouse; details: Urd 2 to 5% in dry diet
Description: Images are presented as 3-D stacks. (B) is a bar graph representing quantitative analysis of liver lipid in 18 probed volumes with xyz dimensions of 125×125×25 μm. Three mice per group were used for analysis. Lipid level is defined as the square root of the CARS signal arising from the lipid droplets. Lipid level is normalized to 1 for WT mice. Error bars represent the standard deviations. (C) is a graph depicting Raman spectroscopy analysis of lipid droplet composition.
Using CARS microscopy to image 100-micron thick sections of explanted liver tissues, the effect of the disruption of URD homeostasis on liver lipids was evaluated. As reprinted in FIG. 1, a dramatic difference in liver lipid accumulation among WT, UPP-1-KO and UPP-1-TG mice was observed. […] To confirm the results obtained through CARS microscopy, Oil Red O staining (specific for neutral triglycerides and lipids) of the frozen liver sections was conducted, which yielded similar results to the CARS technology (data not shown).

UPP-1-TG mice [3] = test: Raman spectroscopy of lipid-chain unsaturation in liver lipid droplets; format: in vivo, mouse; details: UPP-1-TG mice fed with Urd
Description: Red and blue arrows point to 1445 cm^−1 and 1660 cm^−1 peaks, respectively. (B) is a graph showing that 11660/11445 is linearly dependent on lipid-chain unsaturation. (C) is a bar graph depicting lipid-chain unsaturation of liver lipid droplets as a function of WT and UPP-1-TG mice. Error bars represent standard deviation across 18 lipid droplets measured.
In control UPP-1-TG mice, the value of 11660/11445, which is a reliable measure of lipid-chain unsaturation (FIG. 4A-B; Rinia, H. A., et al (2008) Biophysical Journal 95: 4908-4914, 2008), was 1.05 (FIG. 4C). In UPP-1-TG mice fed with Urd, the 11660/11445 value of liver lipid droplets was 0.3. The 11660/11445 value of liver lipid droplets was 0.8 for control WT mice.

[4] = test system: Primary hepatocytes from UPP-1-TG mice; test: Intracellular lipid droplet accumulation in primary hepatocytes (CARS); format: cell-based, mouse; details: UPP-1-TG primary hepatocytes, 24 hour incubation, 100 μM Urd
Description: (B) is a bar graph representing quantitative analysis of intracellular lipid level in 15 isolated hepatocytes from each group. Intracellular lipid level is defined as the square root of the CARS signal arising from the intracellular lipid droplets of each hepatocyte. Intracellular lipid level is normalized to 1 for WT hepatocytes.
To further confirm our results and to provide a more practical in vitro method, short term cultures of primary liver hepatocytes were generated. WT and UPP-1-TG mouse hepatocytes were isolated using a two-step collagenase perfusion technique initially described by Seglen (Seglen, P.O. (1976) Methods Cell Biol. 13: 29-83). Viability ranged from 80-90% as determined by trypan blue exclusion. Hepatocyte enrichment reached approximately 85-90%. Cells were monitored for albumin expression through 72 hours, with no discernible differences when compared to the initial isolation.

half-life ([1]; C57BL/6, mouse, 25 μCi/mouse, wild-type (WT) mice, tracer dose 25 μCi/mouse i.p., read-out: [3H]Urd plasma t1/2): ~4 min | [3H]Urd detectability after administration ([1]; UPP-1-TG (ubiquitous UPP-1 transgenic), mouse, in vivo, 15 minutes): no [^3H]Urd detectable | half-life ([1]; UPP-1-TG (ubiquitous UPP-1 transgenic), mouse, 25 μCi, UPP-1-TG mice, tracer dose 25 μCi i.p., read-out: [3H]Urd t1/2): < 0.5 min | half-life ([1]; mouse, 25 μCi/mouse, UPP-1-KO mice, tracer dose 25 μCi/mouse i.p., read-out: [3H]Urd plasma t1/2): 15 to 18 min
SMILES: O=c1ccn([C@@H]2O[C@H](CO)[C@@H](O)[C@H]2O)c(=O)[nH]1 [[^3H]Urd]

SMILES: O=S(=O)(c1ccccc1)N(CC(F)(F)F)c1ccc(C(O)(C(F)(F)F)C(F)(F)F)cc1 [T0901317]
effect on UPP-2 expression in mouse liver (UPP-2): potent induction

SMILES: O=c1ccn([C@@H]2O[C@H](CO)[C@@H](O)[C@H]2O)c(=O)[nH]1 [Urd, uridine]
reduction of liver lipid accumulation (UPP-1-TG mice [2]): ~15 fold | 11660/11445 value of liver lipid droplets (lipid-chain unsaturation) (UPP-1-TG mice [3]): 0.3 | reduction in intracellular lipid droplet accumulation [4]: 10 fold
